Measured values from ChEMBL document CHEMBL1142260, “Acylguanidine inhibitors of beta-secretase: optimization of the pyrrole ring substituents extending into the S1' substrate binding pocket” (Bioorg Med Chem Lett, 2008).
pIC50: −log10 of the molar value.

Assays:
[1] = Selectivity for BACE1 over cathepsin D
Beta-secretase 1 [2] = molecular target: T1, Beta-secretase 1 (Homo sapiens, UniProt P56817); settings: CHO
CHO = assay: Cytotoxicity against human CHO cells; format: functional; settings: Cricetulus griseus, read-out: LD50 (the source's name)
Beta-secretase 1 [3] = molecular target: T1, Beta-secretase 1; assay: Inhibition of BACE1
Cathepsin D = Cathepsin D (Homo sapiens, UniProt P07339); assay: Inhibition of cathepsin D
Sequence of Cathepsin D (P07339 65-162 limits assumed): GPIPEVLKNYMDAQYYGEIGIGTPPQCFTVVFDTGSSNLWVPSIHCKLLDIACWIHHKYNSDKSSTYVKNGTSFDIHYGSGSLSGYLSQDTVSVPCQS
Sequence of Cathepsin D (P07339 169-412 limits assumed): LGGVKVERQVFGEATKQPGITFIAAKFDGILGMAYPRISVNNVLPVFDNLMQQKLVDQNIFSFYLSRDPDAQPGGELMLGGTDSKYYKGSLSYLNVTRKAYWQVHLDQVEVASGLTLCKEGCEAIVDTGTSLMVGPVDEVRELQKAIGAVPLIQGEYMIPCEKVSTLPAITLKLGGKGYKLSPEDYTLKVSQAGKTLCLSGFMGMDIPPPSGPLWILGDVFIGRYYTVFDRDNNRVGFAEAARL

Beta-secretase 1 [4] = molecular target: T1, Beta-secretase 1; assay: Inhibition of BACE1 at 2 uM

T1 sequence (P56817 whole entry): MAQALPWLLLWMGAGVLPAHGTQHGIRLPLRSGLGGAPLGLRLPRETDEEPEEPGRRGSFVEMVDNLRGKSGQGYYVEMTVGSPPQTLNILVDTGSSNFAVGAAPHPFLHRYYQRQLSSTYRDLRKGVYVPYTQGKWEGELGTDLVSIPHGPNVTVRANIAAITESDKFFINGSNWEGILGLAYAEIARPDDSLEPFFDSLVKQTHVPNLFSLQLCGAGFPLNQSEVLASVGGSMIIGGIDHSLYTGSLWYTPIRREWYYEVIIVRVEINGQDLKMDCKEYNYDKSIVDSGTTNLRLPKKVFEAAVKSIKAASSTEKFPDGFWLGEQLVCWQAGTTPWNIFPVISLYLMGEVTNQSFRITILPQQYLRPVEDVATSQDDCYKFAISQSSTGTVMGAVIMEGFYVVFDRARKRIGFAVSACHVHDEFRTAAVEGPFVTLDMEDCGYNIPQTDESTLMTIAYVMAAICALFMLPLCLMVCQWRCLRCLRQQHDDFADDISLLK

CCCOc1ccc(-c2ccc(-c3ccccc3Cl)n2CC(=O)/N=C(/N)NCCCO)cc1
Ratio IC50 [1]: 85 | ED50 (Beta-secretase 1 [2]): 1.18 µM

CCCOc1ccc(-c2ccc(-c3ccccc3Cl)n2CC(=O)/N=C(/N)NCCC(=O)O)cc1
Ratio IC50 [1]: > 45

N/C(=N/C(=O)Cn1c(-c2ccccc2)ccc1C12CC3CC(CC(C3)C1)C2)NCCCCO
Ratio IC50 [1]: 25 | CC50 (CHO): 31 µM | ED50 (Beta-secretase 1 [2]): 4.15 µM

CCCOc1ccc(-c2ccc(-c3ccccc3Cl)n2CC(=O)/N=C(/N)NCCCSC)cc1
Ratio IC50 [1]: 3.9 | pIC50 (Beta-secretase 1 [3]): 6.49 | ED50 (Beta-secretase 1 [2]): 1.23 µM

C[C@H](O)CNC(=N)NC(=O)Cn1c(-c2ccccc2)ccc1C12CC3CC(CC(C3)C1)C2
pIC50 (Beta-secretase 1 [3]): 6.03 | pIC50 (Cathepsin D): 4.27

CCCOc1ccc(-c2ccc(-c3ccccc3Cl)n2CC(=O)/N=C(/N)NCc2cccs2)cc1
Ratio IC50 [1]: 0.7 | pIC50 (Beta-secretase 1 [3]): 6.12 | ED50 (Beta-secretase 1 [2]): 10.7 µM

N=C(NCc1cccc(N)c1)NC(=O)Cn1c(-c2ccccc2)ccc1C12CC3CC(CC(C3)C1)C2
pIC50 (Beta-secretase 1 [3]): 6.13 | pIC50 (Cathepsin D): 5.86

NC(N)=NC(=O)Cn1c(-c2ccccc2)ccc1C12CC3CC(CC(C3)C1)C2
Ratio IC50 [1]: 69 | pIC50 (Cathepsin D): 4.60 | CC50 (CHO): > 25 µM | ED50 (Beta-secretase 1 [2]): 8.9 µM

N/C(=N/C(=O)Cn1c(-c2ccccc2)ccc1C12CC3CC(CC(C3)C1)C2)NCC(O)CO (centres undefined)
Ratio IC50 [1]: 137 | CC50 (CHO): 88 µM | ED50 (Beta-secretase 1 [2]): 21.1 µM

N#CCCCNC(=N)NC(=O)Cn1c(-c2ccccc2)ccc1C12CC3CC(CC(C3)C1)C2
pIC50 (Beta-secretase 1 [3]): 6.59 | pIC50 (Cathepsin D): 5.37

CCCOc1ccc(-c2ccc(-c3ccccc3Cl)n2CC(=O)/N=C(/N)N[C@H]2CC[C@H](O)CC2)cc1
Ratio IC50 [1]: 110 | pIC50 (Beta-secretase 1 [3]): 6.90 | ED50 (Beta-secretase 1 [2]): 1.28 µM

CCCOc1ccc(-c2ccc(-c3ccccc3Cl)n2CC(=O)/N=C(/N)NCc2ccc(O)c(OC)c2)cc1
Ratio IC50 [1]: 1 | pIC50 (Beta-secretase 1 [3]): 6.19 | ED50 (Beta-secretase 1 [2]): 5.45 µM

N/C(=N\C(=O)Cn1c(-c2ccccc2)ccc1-c1ccccc1)NCc1ccc(F)c(F)c1F
inhibition (Beta-secretase 1 [4]): 43%

CCCOc1ccc(-c2ccc(-c3ccccc3Cl)n2CC(=O)/N=C(/N)NCCCn2ccnc2)cc1
Ratio IC50 [1]: 30 | pIC50 (Beta-secretase 1 [3]): 6.62 | ED50 (Beta-secretase 1 [2]): 3.1 µM

CCCOc1ccc(-c2ccc(-c3ccccc3Cl)n2CC(=O)/N=C(/N)NCCC2OCCO2)cc1
Ratio IC50 [1]: 13 | pIC50 (Beta-secretase 1 [3]): 6.57 | ED50 (Beta-secretase 1 [2]): 1.34 µM

N#CCCCN/C(N)=N\C(=O)Cn1c(-c2ccccc2)ccc1C12CC3CC(CC(C3)C1)C2
Ratio IC50 [1]: 17 | CC50 (CHO): 59 µM | ED50 (Beta-secretase 1 [2]): 4.4 µM

C[C@H](O)CN/C(N)=N\C(=O)Cn1c(-c2ccccc2)ccc1C12CC3CC(CC(C3)C1)C2
Ratio IC50 [1]: 57 | CC50 (CHO): 100 µM | ED50 (Beta-secretase 1 [2]): 17.8 µM

CCCOc1ccc(-c2ccc(-c3ccccc3Cl)n2CC(=O)NC(=N)NCc2ccc(F)c(F)c2F)cc1
pIC50 (Beta-secretase 1 [3]): 6.69

N#CCCN/C(N)=N\C(=O)Cn1c(-c2ccccc2)ccc1C12CC3CC(CC(C3)C1)C2
Ratio IC50 [1]: 39 | pIC50 (Beta-secretase 1 [3]): 6.51 | pIC50 (Cathepsin D): 4.91 | CC50 (CHO): 16 µM | ED50 (Beta-secretase 1 [2]): 3.44 µM

Cc1csc(CN/C(N)=N\C(=O)Cn2c(-c3ccccc3)ccc2C23CC4CC(CC(C4)C2)C3)n1
CC50 (CHO): 8 µM | ED50 (Beta-secretase 1 [2]): 3.97 µM

CCCOc1ccc(-c2ccc(-c3ccccc3Cl)n2CC(=O)NC(=N)NCCCO)cc1
pIC50 (Beta-secretase 1 [3]): 6.92

CCCOc1ccc(-c2ccc(-c3ccccc3Cl)n2CC(=O)/N=C(/N)NCCC(N)=O)cc1
Ratio IC50 [1]: 55

CCCOc1ccc(-c2ccc(-c3ccccc3Cl)n2CC(=O)/N=C(/N)NCCCC(N)=O)cc1
Ratio IC50 [1]: 70 | pIC50 (Beta-secretase 1 [3]): 6.86 | ED50 (Beta-secretase 1 [2]): 4.14 µM

N/C(=N/C(=O)Cn1c(-c2ccccc2)ccc1C12CC3CC(CC(C3)C1)C2)NCCCO
Ratio IC50 [1]: 83 | pIC50 (Cathepsin D): 4.70 | CC50 (CHO): 35 µM | ED50 (Beta-secretase 1 [2]): 1.84 µM

N/C(=N/C(=O)Cn1c(-c2ccccc2)ccc1C12CC3CC(CC(C3)C1)C2)NC1CCCCC1
Ratio IC50 [1]: 7.5 | CC50 (CHO): 50 µM | ED50 (Beta-secretase 1 [2]): 18.7 µM

CCCOc1ccc(-c2ccc(-c3ccccc3Cl)n2CC(=O)/N=C(/N)NCCCC(=O)O)cc1
Ratio IC50 [1]: 45 | pIC50 (Beta-secretase 1 [3]): 6.89

CCCOc1ccc(-c2ccc(-c3ccccc3Cl)n2CC(=O)/N=C(/N)NCc2ccco2)cc1
Ratio IC50 [1]: 2.5 | ED50 (Beta-secretase 1 [2]): 9.1 µM

CCCOc1ccc(-c2ccc(-c3ccccc3Cl)n2CC(=O)NC(=N)NCCC(=O)O)cc1
pIC50 (Beta-secretase 1 [3]): 6.56

N/C(=N/C(=O)Cn1c(-c2ccccc2)ccc1C12CC3CC(CC(C3)C1)C2)NCCc1ccsc1
CC50 (CHO): 2 µM | ED50 (Beta-secretase 1 [2]): 1.69 µM

N/C(=N\C(=O)Cn1c(-c2ccccc2)ccc1C12CC3CC(CC(C3)C1)C2)NCCCCO
pIC50 (Beta-secretase 1 [3]): 6.59 | pIC50 (Cathepsin D): 5.19

C[C@@H](O)CN/C(N)=N\C(=O)Cn1c(-c2ccccc2)ccc1C12CC3CC(CC(C3)C1)C2
Ratio IC50 [1]: 28 | pIC50 (Beta-secretase 1 [3]): 6.36 | pIC50 (Cathepsin D): 4.90 | CC50 (CHO): 79 µM | ED50 (Beta-secretase 1 [2]): 9.51 µM

N/C(=N/C(=O)Cn1c(-c2ccccc2)ccc1C12CC3CC(CC(C3)C1)C2)NCCCn1ccnc1
Ratio IC50 [1]: > 15 | CC50 (CHO): 45 µM | ED50 (Beta-secretase 1 [2]): 9.16 µM

CCCOc1ccc(-c2ccc(-c3ccccc3Cl)n2CC(=O)/N=C(/N)NCC(C)(C)CO)cc1
Ratio IC50 [1]: 15 | pIC50 (Beta-secretase 1 [3]): 6.69 | ED50 (Beta-secretase 1 [2]): 5.27 µM

N=C(NCCCn1ccnc1)NC(=O)Cn1c(-c2ccccc2)ccc1C12CC3CC(CC(C3)C1)C2
pIC50 (Beta-secretase 1 [3]): 5.77 | pIC50 (Cathepsin D): < 4.60

Cc1nnc(CN/C(N)=N\C(=O)Cn2c(-c3ccccc3)ccc2C23CC4CC(CC(C4)C2)C3)o1
pIC50 (Cathepsin D): 5.52 | CC50 (CHO): 22 µM | ED50 (Beta-secretase 1 [2]): 9.48 µM

N/C(=N/C(=O)Cn1c(-c2ccccc2)ccc1C12CC3CC(CC(C3)C1)C2)NCCc1cccs1
pIC50 (Cathepsin D): 6.32 | CC50 (CHO): 3 µM | ED50 (Beta-secretase 1 [2]): 2 µM

N=C(NCCc1ccsc1)NC(=O)Cn1c(-c2ccccc2)ccc1C12CC3CC(CC(C3)C1)C2
pIC50 (Cathepsin D): 6.22

N/C(=N/C(=O)Cn1c(-c2ccccc2)ccc1C12CC3CC(CC(C3)C1)C2)NCCO
Ratio IC50 [1]: 36 | pIC50 (Beta-secretase 1 [3]): 6.17 | pIC50 (Cathepsin D): 4.61 | CC50 (CHO): 25 µM | ED50 (Beta-secretase 1 [2]): 3.62 µM

N/C(=N/C(=O)Cn1c(-c2ccccc2)ccc1C12CC3CC(CC(C3)C1)C2)N[C@H]1CC[C@H](O)CC1
pIC50 (Beta-secretase 1 [3]): 6.55 | CC50 (CHO): 14 µM | ED50 (Beta-secretase 1 [2]): 1.44 µM

CCCOc1ccc(-c2ccc(-c3ccccc3Cl)n2CC(=O)/N=C(/N)N[C@H]2CC[C@H](C(=O)O)CC2)cc1
Ratio IC50 [1]: 7.3 | pIC50 (Beta-secretase 1 [3]): 7.11 | ED50 (Beta-secretase 1 [2]): 10.4 µM

N/C(=N/C(=O)Cn1c(-c2ccccc2)ccc1C12CC3CC(CC(C3)C1)C2)NCc1cccc(N)c1
Ratio IC50 [1]: 1.9 | CC50 (CHO): 8 µM | ED50 (Beta-secretase 1 [2]): 4.81 µM

CCCOc1ccc(-c2ccc(-c3ccccc3Cl)n2CC(=O)NC(=N)NCCC(N)=O)cc1
pIC50 (Beta-secretase 1 [3]): 6.76

N=C(NC(=O)Cn1c(-c2ccccc2)ccc1C12CC3CC(CC(C3)C1)C2)NC1CCCCC1
pIC50 (Beta-secretase 1 [3]): 5.14 | pIC50 (Cathepsin D): 4.27

CCCOc1ccc(-c2ccc(-c3ccccc3Cl)n2CC(=O)/N=C(/N)NCc2ccc(F)c(F)c2F)cc1
Ratio IC50 [1]: 0.5 | ED50 (Beta-secretase 1 [2]): 5.27 µM

CCCOc1ccc(-c2ccc(-c3ccccc3Cl)n2CC(=O)NC(=N)NCc2ccco2)cc1
pIC50 (Beta-secretase 1 [3]): 6.25

Cc1csc(CNC(=N)NC(=O)Cn2c(-c3ccccc3)ccc2C23CC4CC(CC(C4)C2)C3)n1
pIC50 (Cathepsin D): 6.84

N=C(NCC(O)CO)NC(=O)Cn1c(-c2ccccc2)ccc1C12CC3CC(CC(C3)C1)C2 (centres undefined)
pIC50 (Beta-secretase 1 [3]): 6.27 | pIC50 (Cathepsin D): 4.13

CCCOc1ccc(-c2ccc(-c3ccccc3Cl)n2CC(=O)/N=C(/N)NCC(O)CO)cc1 (centres undefined)
Ratio IC50 [1]: 81 | pIC50 (Beta-secretase 1 [3]): 6.91 | ED50 (Beta-secretase 1 [2]): 5.27 µM
